Where two headings read alike, the source gives them in different places.
Legend:
KB = test: in vitro; type: cell-based, human
Method: (§1) Cytotoxicity to human tumor cell lines was examined as follows:
(§2) Cells of human cell lines, K562, MOLT4, U937, HL60, KATOIII, KB, PC-6, PC-14 and CCRF-CEM were separately suspended to the concentration of 2×10^5 cells/ml in the RPMI1640 culture medium supplemented with 20% FCS. Fifty μl of this suspension was added to each well of 96-well microculture plates to which 50 μl of the test solution had been added. After culturing at 37° C. in an atmosphere of 5% carbon dioxide for 72 hours, the absorbancy at 550 nm was measured in the same way as the colorimetry using MTT in Experimental Example 1, and the percent suppression was calculated in the same manner as in Experimental Example 14, which was used as the index of cytotoxicity.

U937 = test: in vitro; type: cell-based, human
Method: as §1, §2

HL60 = test: in vitro; type: cell-based, human
Method: as §1, §2

PC-14 = test: in vitro; type: cell-based, human
Method: as §1, §2

CCRF-CEM = test: in vitro; type: cell-based, human
Method: as §1, §2

K562 = test: in vitro; type: cell-based, human
Method: as §1, §2

in vitro = type: cell-based, human; conditions: human, read-out: Suppression
Method: as §1, §2

mouse L929 cells = test: cytotoxicity to mouse L929 cells; type: cell-based; conditions: 550 nm
Method: (§3) Cytotoxicity to mouse L929 cells was assayed as follows:
(§4) L929 cells were suspended to the concentration of 1.5×10^5 cells/ml in the F12 culture medium supplemented with 10% FCS. One hundred μl of the suspension was added to each well of 96-well microculture plates, and cultured at 37° C. in an atmosphere of 5% carbon dioxide for 24 hours, to which 100 μl of the test solution was added and cultured for further 48 hours. After the culture, 100 μl of the supernatant was removed and the absorbancy at 550 nm was measured in the same way as the colormetry using MTT in Experimental Example 1. The percent suppression was calculated by the following formula used as the index of cytotoxicity. [formula]

[1] = cytotoxicity to mouse L929 cells; type: cell-based; conditions: mouse, l929 cells, read-out: Suppression
Method: as §3, §4

[2] = system: mouse allogenic mixed lymphocyte reaction (BALB/c responder, C57BL/6 stimulator spleen cells); test: mouse allogenic mixed lymphocyte reaction (MLR), blastogenesis by 3H-thymidine uptake; type: cell-based; conditions: for inhibition at 0.001 µg/mL / inhibition at 0.01 µg/mL / inhibition at 0.1 µg/mL: Mus musculus, Lymphocyte, read-out: Suppression
Method: The immunosuppressive activity of the compounds (I) and their lactones was assayed by using mouse allogenic mixed lymphocyte reaction (hereinafter sometimes abbreviated as MLR). Mouse allogenic MLR was carried out by mixed culture of the BALB/c mouse (H-2^d) spleen cells as the responder cells and the mitomycin C-treated C57BL/6 (H-2^b) spleen cells as the stimulator cells in equal amounts.
The responder cells were prepared as follows: The spleen was resected from 5- to 6-week-old male BALB/c mice, and single cell suspension of spleen cells was prepared by using the RPMI1640 culture medium (containing 60 μg/ml of kanamycin sulfate, 2 mM of L-glutamine, 10 mM of N-2-hydroxyethylpiperazine-N'-2-ethanesulfonate (HEPES) and 0.1% sodium hydrogencarbonate) to which heat-inactivated fetal calf serum (hereinaftersometimes abbreviated as FCS) had been added to 5%. After hemolytic treatment, the cell suspension was adjusted to a concentration of 10^7 cells/ml by using the RPMI1640 culture medium supplemented with 10^-4 M 2-mercaptoethanol and 20% FCS, and was used as the responder cell suspension.
The stimulator cells were prepared as follows:
The spleen was resected from 5- to 6-week-old male C57BL/6 mice, and single cell suspension of spleen cells was prepared by using the RPMI1640 culture medium. After hemolytic treatment, the cells were treated with 40 μg/ml of mitomycin C at 37° C. for 60 minutes. After washing three times, the concentration of the cell suspension was adjusted to 10^7 cells/ ml by using the RPMI1640 culture medium supplemented with 10^-4 M 2-mercaptoethanol and 20% FCS, and was used as the stimulator cell suspension.
Fifty μl of the responder cell suspension, 50μl of the stimulator cell suspension prepared by the above method, and 100 μl of the test substance were placed in 96-well microculture plates, and were cultured at 37° C. in an atmosphere of 5% carbon dioxide for 4 days.
The blastogenesis of lymphocytes was assayed by a method of ^3 H-thymidine uptake as an index. That is, after termination of the culture, 0.5 μCi/well of ^3 H-thymidine was added and cultured for 4 hours. Cells were harvested by a cell-harvester, and the radioactivity incorporated into the cells was determined by a liquid scintillation counter to obtain the index of blastogenesis of lymphocytes in the mouse allogenic MLR. The suppression of the mouse allogenic MLR was evaluated by calculating the percent suppression by the following formula. [formula]
The test substance was dissolved in methanol or suspended in a mixture of methanol and acetic acid, and then diluted with the RPMI1640 culture medium.

MOLT4 = test: cytotoxicity to tumor cell line MOLT4; type: cell-based, human
Method: as §1, §2

[3] = cytotoxicity to tumor cell line MOLT4; type: cell-based, human; conditions: human, molt4 cells, read-out: Suppression
Method: as §1, §2

In the case of `CCCCCCC(=O)CCCCCCCCCC(O)C(O)C(N)(CO)C(=O)O` (stereo not shown) [Example 5], the Absorbancy (KB; 0.1 μg/ml) is reported as 0.761, the Absorbancy (KB; 1.0 μg/ml) is reported as 0.734 and the Absorbancy (KB; 10.0 μg/ml) is reported as 0.711. For the same compound, the Absorbancy (U937; 0.1 μg/ml) was 0.462, the Absorbancy (U937; 1.0 μg/ml) was 0.485 and the Absorbancy (HL60; 0.1 μg/ml) was 0.593. For the same compound, the Absorbancy (HL60; 1.0 μg/ml) was 0.657, the Absorbancy (HL60; 10.0 μg/ml) was 0.590 and the Absorbancy (PC-14; 0.1 μg/ml) was 0.420. The Absorbancy (PC-14; 1.0 μg/ml) was 0.396, the Absorbancy (PC-14; 10.0 μg/ml) was 0.352 and the Absorbancy (CCRF-CEM; 0.1 μg/ml) was 0.485. It also gave an Absorbancy (CCRF-CEM; 1.0 μg/ml) of 0.466, an Absorbancy (CCRF-CEM; 10.0 μg/ml) of 0.394 and an Absorbancy (K562; 0.1 μg/ml) of 0.823. The Absorbancy (K562; 1.0 μg/ml) was 0.810, the Absorbancy (K562; 10.0 μg/ml) was 0.780 and the cytotoxicity at 72 h (in vitro; ccrf-cem cells, 0.1 μg/ml) was 3.6%. For the same compound, the cytotoxicity at 72 h (in vitro; ccrf-cem cells, 1.0 μg/ml) was 7.4%, the cytotoxicity at 72 h (in vitro; ccrf-cem cells, 10.0 μg/ml) was 21.7% and the cytotoxicity at 72 h (in vitro; hl60 cells, 0.1 μg/ml) was 20.5%. It also gave a cytotoxicity at 72 h (in vitro; hl60 cells, 1.0 μg/ml) of 11.9%, a cytotoxicity at 72 h (in vitro; hl60 cells, 10.0 μg/ml) of 20.9% and a cytotoxicity at 72 h (in vitro; k562 cells, 0.1 μg/ml) of 1.6%. The cytotoxicity at 72 h (in vitro; k562 cells, 1.0 μg/ml) was 3.1%, the cytotoxicity at 72 h (in vitro; k562 cells, 10.0 μg/ml) was 6.7% and the cytotoxicity at 72 h (in vitro; kb cells, 0.1 μg/ml) was 0%. It also gave a cytotoxicity at 72 h (in vitro; kb cells, 1.0 μg/ml) of 0%, a cytotoxicity at 72 h (in vitro; kb cells, 10.0 μg/ml) of 2.6% and a cytotoxicity at 72 h (in vitro; pc-14 cells, 0.1 μg/ml) of 11.4%. For the same compound, the cytotoxicity at 72 h (in vitro; pc-14 cells, 1.0 μg/ml) was 16.5%, the cytotoxicity at 72 h (in vitro; pc-14 cells, 10.0 μg/ml) was 25.7% and the cytotoxicity at 72 h (in vitro; u937 cells, 0.1 μg/ml) was 4.5%. The cytotoxicity at 72 h (in vitro; u937 cells, 1.0 μg/ml) was 0%, the Absorbancy (mouse L929 cells; 0.1 μg/ml) was 0.775 and the Absorbancy (mouse L929 cells; 1 μg/ml) was 0.805. The Absorbancy (mouse L929 cells; 10 μg/ml) was 0.749, the cytotoxicity at 48 h ([1]; 0.1 μg/ml) was 0% and the cytotoxicity at 48 h ([1]; 1 μg/ml) was 0%. It also gave a cytotoxicity at 48 h ([1]; 10 μg/ml) of 0%, a 3H-thymidine uptake ([2]; 0.001 μg/ml) of 22321 cpm and a 3H-thymidine uptake ([2]; 0.01 μg/ml) of 8182 cpm. It also gave a 3H-thymidine uptake ([2]; 0.1 μg/ml) of 1952 cpm, an inhibition at 0.001 µg/mL ([2]; 0.001 μg/ml) of 23.5% and an inhibition at 0.01 µg/mL ([2]; 0.01 μg/ml) of 90.6%. It also gave an inhibition at 0.1 µg/mL ([2]; 0.1 μg/ml) of 100%, an Absorbancy (MOLT4; 0.1 μg/ml) of 0.591 and an Absorbancy (MOLT4; 1.0 μg/ml) of 0.588. It also gave an Absorbancy (MOLT4; 10.0 μg/ml) of 0.508, a cytotoxicity at 72 h ([3]; 0.1 μg/ml) of 4.7% and a cytotoxicity at 72 h ([3]; 1.0 μg/ml) of 5.2%. It also gave a cytotoxicity at 72 h ([3]; 10.0 μg/ml) of 18.1%.
With `CCCCCCC(O)CCCCCC/C=C/CC(O)C(O)C(N)(CO)C(=O)O` (stereo not shown) [Example 6] the Absorbancy (KB; 0.1 μg/ml) was 0.771, the Absorbancy (KB; 1.0 μg/ml) was 0.728 and the Absorbancy (KB; 10.0 μg/ml) was 0.707. The Absorbancy (U937; 0.1 μg/ml) was 0.439, the Absorbancy (U937; 1.0 μg/ml) was 0.436 and the Absorbancy (U937; 10.0 μg/ml) was 0.435. For the same compound, the Absorbancy (HL60; 0.1 μg/ml) was 0.619, the Absorbancy (HL60; 1.0 μg/ml) was 0.589 and the Absorbancy (HL60; 10.0 μg/ml) was 0.627. The Absorbancy (PC-14; 0.1 μg/ml) was 0.372, the Absorbancy (PC-14; 1.0 μg/ml) was 0.405 and the Absorbancy (PC-14; 10.0 μg/ml) was 0.351. It also gave an Absorbancy (CCRF-CEM; 0.1 μg/ml) of 0.463, an Absorbancy (CCRF-CEM; 1.0 μg/ml) of 0.457 and an Absorbancy (CCRF-CEM; 10.0 μg/ml) of 0.475. It also gave an Absorbancy (K562; 0.1 μg/ml) of 0.823, an Absorbancy (K562; 1.0 μg/ml) of 0.798 and an Absorbancy (K562; 10.0 μg/ml) of 0.811. It also gave a cytotoxicity at 72 h (in vitro; ccrf-cem cells, 0.1 μg/ml) of 8%, a cytotoxicity at 72 h (in vitro; ccrf-cem cells, 1.0 μg/ml) of 9.1% and a cytotoxicity at 72 h (in vitro; ccrf-cem cells, 10.0 μg/ml) of 5.6%. For the same compound, the cytotoxicity at 72 h (in vitro; hl60 cells, 0.1 μg/ml) was 16%, the cytotoxicity at 72 h (in vitro; hl60 cells, 1.0 μg/ml) was 21% and the cytotoxicity at 72 h (in vitro; hl60 cells, 10.0 μg/ml) was 17%. The cytotoxicity at 72 h (in vitro; k562 cells, 0.1 μg/ml) was 1.6%, the cytotoxicity at 72 h (in vitro; k562 cells, 1.0 μg/ml) was 4.5% and the cytotoxicity at 72 h (in vitro; k562 cells, 10.0 μg/ml) was 3%. For the same compound, the cytotoxicity at 72 h (in vitro; kb cells, 0.1 μg/ml) was 0%, the cytotoxicity at 72 h (in vitro; kb cells, 1.0 μg/ml) was 0.3% and the cytotoxicity at 72 h (in vitro; kb cells, 10.0 μg/ml) was 3.2%. The cytotoxicity at 72 h (in vitro; pc-14 cells, 0.1 μg/ml) was 21.5%, the cytotoxicity at 72 h (in vitro; pc-14 cells, 1.0 μg/ml) was 14.6% and the cytotoxicity at 72 h (in vitro; pc-14 cells, 10.0 μg/ml) was 25.9%. For the same compound, the cytotoxicity at 72 h (in vitro; u937 cells, 0.1 μg/ml) was 14%, the cytotoxicity at 72 h (in vitro; u937 cells, 1.0 μg/ml) was 9.9% and the cytotoxicity at 72 h (in vitro; u937 cells, 10.0 μg/ml) was 10.1%. The Absorbancy (mouse L929 cells; 0.1 μg/ml) was 0.732, the Absorbancy (mouse L929 cells; 1 μg/ml) was 0.714 and the Absorbancy (mouse L929 cells; 10 μg/ml) was 0.733. For the same compound, the cytotoxicity at 48 h ([1]; 0.1 μg/ml) was 0%, the cytotoxicity at 48 h ([1]; 1 μg/ml) was 0% and the cytotoxicity at 48 h ([1]; 10 μg/ml) was 0%. It also gave a 3H-thymidine uptake ([2]; 0.001 μg/ml) of 16237 cpm, a 3H-thymidine uptake ([2]; 0.01 μg/ml) of 9276 cpm and a 3H-thymidine uptake ([2]; 0.1 μg/ml) of 3017 cpm. For the same compound, the inhibition at 0.001 µg/mL ([2]; 0.001 μg/ml) was 52.3%, the inhibition at 0.01 µg/mL ([2]; 0.01 μg/ml) was 85.4% and the inhibition at 0.1 µg/mL ([2]; 0.1 μg/ml) was 100%. For the same compound, the Absorbancy (MOLT4; 0.1 μg/ml) was 0.615, the Absorbancy (MOLT4; 1.0 μg/ml) was 0.599 and the Absorbancy (MOLT4; 10.0 μg/ml) was 0.567. It also gave a cytotoxicity at 72 h ([3]; 0.1 μg/ml) of 0.8%, a cytotoxicity at 72 h ([3]; 1.0 μg/ml) of 3.4% and a cytotoxicity at 72 h ([3]; 10.0 μg/ml) of 8.5%.

From patent publication US5219884A, “Immunosuppressant” (Taito Co., Ltd., priority 1990, dated 1993)
